Laboratory results as given in patent US6887903B1, “N-(2-aryl-propionyl)-sulfonamides and pharmaceutical preparations containing them” (Dompe S.p.A., priority 1998, dated 2005).

Columns and labels:
CO enzymes = conditions: ketoprofen enantiomers; cited from earlier work
[1] = test system: human PMNs leukocytes stimulated by IL-8; test: Cytosol [Ca2+]i variations in human PMN stimulated by IL-8 (Fura-2AM); type: cell-based; conditions: for [Ca2+]i response, % compared with basal values (basal normalized at 100): compound 10^−6 M + IL-8 50 ng/mL, mean of responsive cells with SEM, PMN from 3 donors; for percentage of non-responsive cells: pretreated with compound 10^−6 M, IL-8 50 ng/mL (30% with only IL-8)
Experimental: (§1) The compounds of the invention were studied using PMN cells obtained by sedimentation of heparinized blood from healthy volunteers on dextran; the mononuclear cells were removed by means of Ficoll/Hypaque whereas erythrocytes were removed by treatment with hypotonic solutions. Cell viability of PMN leukocytes was calculated by exclusion with Turk and Trypan Blue, while the percentage of PM-nucleates on the cytocentrifugate was evaluated upon staining with Diff Quinck (W. J. Ming et al., J. Immunol., 138, 1469, 1987).
(§2) In each of the “in vitro” tests subsequently described, PMN were incubated with the compounds of the invention for 10 minutes at a temperature of 37° C.
(§3) In the chemotaxis tests and in those for evaluating cytosol levels of the Ca^2+ ion, human recombinant IL-8 (Pepro Tech.) was used as stimulating agent: the freeze-dried protein was dissolved in HBSS (Hank's balanced salts solution) at a concentration of 100 ng/mL and was used after dilution in HBSS to concentrations of 10 ng/mL in the chemotaxis tests and of 25-50 ng/mL in the evaluation of [Ca^2+]i cell modifications.
Cytosol variations of [Ca^2+]i were determined according to the experimental model described by C. Bizzarri et al., (Blood, 86, 2388, 1995), using slides containing adhered PMN added with 1 μM Fura-2AM to evaluate [Ca^2+]i variations in actual time. In their turn, PMN cytocentrifugates were resuspended in RPMI 1640 medium with 5% FCS (bovine foetal serum) at a concentration of 3×10^6/mL and then inoculated (plated) on round glass slides of 25 mm diameter which were placed in incubator for 30 min. at 37° C. After three subsequent washings with BSS (Balanced salts solution) to remove the non adherent cells, all of the adherent cells were further incubated for a maximum of 4 hours before adding Fura-2AM.
By way of example, results obtained with R(−)-N-2-[3-(benzoylphenyl)-propionyl])-methanesulfonamide (DF 1661) and R(−)-N-2-[(4-Isobutylphenyl)-propionyl]-methanesulfonamide (DF 1681) using human PMNs leukocytes from 3 different donors are reported in the subsequent table. These leukocytes were considered responsive to IL-8 (50 ng/mL) when [Ca^2+]i was higher than the basal value by 34% (normalized at 100) in response to the stimulus.
The responses, expressed as % compared with [Ca^2+]i basal values, are the mean of the values of the responsive cells and include standard error (SEM); n is the number of replications. During these tests, the percentage of non-responsive cells was different in the different groups: 30% in the group treated with only IL-8, 40% in the group pretreated with DF 1661 and 70% in the group pretreated with DF 1681.

[2] = test system: PMN human leukocytes stimulated by C5a; test: Chemotaxis of human PMN induced by C5a; type: cell-based; conditions: C5a 10^−9 M; DF 1681 from 10^−6 to 10^−7 M
Experimental: as §1, §2
(§4) In the chemotaxis test (according to W. Falket et al., J. Immunol. Methods, 33, 239, 1980) PVP filters of […] porosity and a plexigas microcamera suitable to perform 48 replications were used. The microcamera consists of a plexiglas piece containing 48 wells, each of 25 μL capacity, and is equipped with a cover, in its turn containing 48 pores arranged so that, once the lid has been placed on and screwed to the underneath part, 50 μL capacity top compartments are formed in the microcamera.
(§5) Equal concentrations of the tested compounds were placed in the top wells containing the PMN suspension and in the lower ones, which contained the carrier optionally added with IL-8 (or a different stimulating agent).

[3] = test system: PMN human leukocytes stimulated by f-MLP; test: Chemotaxis of human PMN induced by f-MLP; type: cell-based; conditions: f-MLP 10^−8 M; DF 1681 from 10^−6 to 10^−7 M
Experimental: as §1, §2, §4, §5

[4] = test system: PMN human leukocytes stimulated by interleukin 8; test: Chemotaxis of human PMN induced by IL-8; type: cell-based; conditions: IL-8 10 ng/mL; concentration range from 10^−6 to 10^−11 M; mean ±S.D. of 3 independent tests
Experimental: as §1, §2, §3
In the chemotaxis test (according to W. Falket et al., J. Immunol. Methods, 33, 239, 1980) PVP filters of […] porosity and a plexigas microcamera suitable to perform 48 replications were used. […]

[5] = test system: human neutrophils stimulated by GROα; conditions: GROα 10 nM; read-out: IC50 of blockage of chemotaxis stimulated by GROα; cited from earlier work
[6] = test system: human neutrophils stimulated by complement C5a; conditions: concentration range of 50 to 330 nM; cited from earlier work
[7] = test system: human neutrophils stimulated by IL-8; conditions: IL-8 1 nM; read-out: IC50 of blockage of chemotaxis stimulated by IL-8; cited from earlier work

SMILES: C[C@@H](C(=O)O)c1cccc(C(=O)c2ccccc2)c1 (single isomer, unassigned) [enantiomer (R)]
- lower potency of enantiomer (R) compared with enantiomer (S) as CO enzymes inhibitor (CO enzymes): 10-100 times

SMILES: C[C@@H](C(=O)NS(C)(=O)=O)c1cccc(C(=O)c2ccccc2)c1 [DF 1661]
- [Ca2+]i response, % compared with basal values (basal normalized at 100) [1]: 184 + 16 (n = 10) %
- percentage of non-responsive cells [1]: 40%

SMILES: CC(C)Cc1ccc([C@@H](C)C(=O)NS(C)(=O)=O)cc1 [DF 1681, R(−)-N-[2-(4-Isobutylphenyl)propionyl]-methanesulfonamide]
- inhibition of chemotaxis induced by C5a (FIG. 2) [2]: selectivity inhibit IL-8-induced chemotaxis instead of chemotaxis induced by C5a
- inhibition of chemotaxis induced by f-MLP (FIG. 2) [3]: selectivity inhibit IL-8-induced chemotaxis instead of chemotaxis induced by C5a (10^−9 M) or by f-MLP
- [Ca2+]i response, % compared with basal values (basal normalized at 100) [1]: 159 + 16 (n = 10) %
- percentage of non-responsive cells [1]: 70%
- inhibition of chemotaxis induced by IL-8 (number of migrated PMN, FIG. 1) [4]: dose-dependently inhibits chemotaxis induced by IL-8

SMILES: O=C(Nc1ccc([N+](=O)[O-])cc1O)Nc1ccccc1Br [N-(2-hydroxy-4-nitrophenyl)-N′-(2-bromo-phenyl)urea]
- IC50 [5]: 20 to 60 nM
- blockage of C5a-stimulated chemotaxis [6]: but not that of complement C5a-stimulated chemotaxis
- IC50 [7]: 20 to 60 nM
